Assay results from patent publication US8796175B2, “Method for enhancing plant intrinsic defense” (Bayer CropScience AG, priority 2008, dated 2014).

Tested on: Tomato (Solanum lycopersicum 'Rentita')
Test: Root growth test of tomatoes under oxygen deficiency conditions in the nutrient solution
Assay type: in vivo
Settings: 1.0 mg a.i./plant, floating box, nutrient solution not aerated (oxygen deficiency stress), average of maximum root length per plant
Procedure: To prepare a suitable solution of the preparation, 1 part by weight of active substance is mixed with water to give the desired concentration.
Tomato seeds (Solanum lycopersicum ‘Rentita’) are grown in rock wool. After germination, the rock wool blocks are transferred into a floating box provided with the solution of the preparation and grown on under suitable climatic conditions.
The nutrient solution of the floating box was not aerated (oxygen deficiency stress).
After the desired period of time, the maximum length of the root per tomato plant is measured, and the average root length per floating box and treatment is calculated.

Structure (SMILES): CC(c1ccc(C(F)(F)F)nc1)S(C)(=O)=NC#N (stereo not shown) [Compound (I-8)]
- Root growth of tomatoes: Length in cm after 4 d: 6.7 cm
